Reference: patent publication US9435813B2, “Biomarkers of hemorrhagic shock” (The General Hospital Corporation, priority 2010, dated 2016)
Entries after “also recorded” stand apart in the source; their conditions may differ.

How the values were obtained:
22.7 kDa serum protein = assay: SELDI-TOF MS serum protein profiling in lethal hemorrhagic shock model; type: in vivo; settings: rat, 60% blood loss, VPA 300 mg/kg via femoral vein, 24 hours after treatment
Protocol: (§1) An animal model of HS was used. Male Wistar-Kyoto rats (254.12±2.71 grams, Harlan, Indianapolis, Ind.) were used in the lethal model of hemorrhagic shock (Shults et al., J Trauma 2008; 64(3):629-638). Each animal's estimated blood volume was calculated using the formula: [estimated blood volume (mL)=weight (g)×0.06 (mL/g)+0.77]. About 1.3 mL of blood was manually drawn at the beginning and end of hemorrhage for analysis (included in the total hemorrhage calculation). The animals were hemorrhaged (40% of their calculated total blood volume) via a femoral arterial catheter over 10 minutes, followed by a 20% blood volume venous bleed over the next 50 minutes. Bleeding was performed using Kent Scientific adjustable pumps (Kent Scientific Corporation, N.J.). VPA (300 mg/kg) was administered via a femoral vein catheter after completion of hemorrhage. Blood pressure was monitored continuously during the experiment. The mean arterial pressure (MAP) in animals that were subjected to hemorrhage dropped sharply after bleeding to approximately 20 mm Hg. […]
ProteinChip profiling was performed on CM10 ProteinChip arrays (Ciphergen Biosystems, Fremont Calif.), as recommended by the manufacturer. […] The arrays were then inserted into a ProteinChip (Enterprise edition) TOF-MS and read at an optimized laser setting of 2000 nJ-5000 nJ. […]

claudin-3 [1] = assay: iTRAQ quantification of claudin-3 peptide in serum after hemorrhagic shock; type: in vivo; settings: rat serum, 24 hours post-VPA 300 mg/kg; BL to HS ratio 0.323
Protocol: as §1
Immunodepletion of serum abundant proteins was performed as follows. […] Column performance was monitored by sodium dodecyl sulphate-polyacrylamide gel electrophoresis (SDS-PAGE) followed by Coomassie Blue staining (BioBlue, BioRad). […]

claudin-3 [2] = assay: Western blot of serum claudin-3 after hemorrhagic shock; type: in vivo; settings: rat serum, 1 hour following VPA treatment; two bands seen in HS 1 hour group
Protocol: An animal model of HS was used. Male Wistar-Kyoto rats (254.12±2.71 grams, Harlan, Indianapolis, Ind.) were used in the lethal model of hemorrhagic shock (Shults et al., J Trauma 2008; 64(3):629-638). Each animal's estimated blood volume was calculated using the formula: [estimated blood volume (mL)=weight (g)×0.06 (mL/g)+0.77]. About 1.3 mL of blood was manually drawn at the beginning and end of hemorrhage for analysis (included in the total hemorrhage calculation). The animals were hemorrhaged (40% of their calculated total blood volume) via a femoral arterial catheter over 10 minutes, followed by a 20% blood volume venous bleed over the next 50 minutes. Bleeding was performed using Kent Scientific adjustable pumps (Kent Scientific Corporation, N.J.). VPA (300 mg/kg) was administered via a femoral vein catheter after completion of hemorrhage. Blood pressure was monitored continuously during the experiment. […]
To assess whether claudin-3 is a potential biomarker, independent serum samples were taken of sham (no hemorrhage and no treatment), HS 1 hour (1 hour following hemorrhagic shock), and VPA 1 hour (1 hour following VPA treatment) from individual rats and the level of the candidate biomarker was determined by Western blot with anti-claudin-3 antibody. […]

claudin-3 [3] = assay: Western blot of intestinal claudin-3 protein after hemorrhagic shock; type: in vivo; settings: rat intestine, 1, 6, and 24 hours after VPA treatment
Protocol: as §1, with “experiment.” for “experiment. The mean arterial pressure (MAP) in animals that were subjected to hemorrhage dropped sharply after bleeding to approximately 20 mm Hg.”
Claudin-3 is a TJ protein that has important roles in establishing epithelial and endothelial barriers. To find out whether HS and VPA treatment affect claudin-3 protein in TJ of epithelial cells, protein expression was analyzed in intestinal tissue obtained from sham, HS 1 hour (1 hour after hemorrhagic shock), and VPA-treated animals (1 hour, 6 hours, and 24 hours after treatment). […]

claudin-3 mRNA = assay: RT-PCR of intestinal claudin-3 mRNA after hemorrhagic shock; type: in vivo; settings: rat intestine, 1, 6 and 24 hours
Protocol: To assess whether gene expression of claudin-3 responds to HS and VPA treatment, the mRNA expression of rat intestines among the groups of sham, HS and VPA treatment was compared at 1, 6 and 24 hours using RT-PCR methods.

hemorrhagic shock [4] = assay: Survival in lethal model of hemorrhagic shock; type: in vivo; settings: rat, HS 60% blood loss, VPA 300 mg/kg; untreated animals did not survive
Protocol: as §1
Male Wistar-Kyoto rats underwent HS (60% blood loss) followed by treatment with or without VPA (300 mg/kg). Serum samples were obtained at baseline (BL), end of hemorrhage (EH), and after VPA treatment (VPA), and subjected to iTRAQ and analyzed by liquid chromatography-tandem mass spectrometry (LC-MS/MS). […]

CINC-1 [5] = assay: Serum CINC-1, multiplex electrochemiluminescence assay, sub-lethal hemorrhagic shock; type: in vivo; settings: rat, 40% blood volume hemorrhage, VPA 300 mg/kg IV vs vehicle
Protocol: (§2) Anesthetized Wistar-Kyoto rats (250-300 g) underwent 40% blood volume hemorrhage over 10 minutes followed by 30 minutes of un-resuscitated shock and were treated with 1) VPA 300 mg/kg or 2) vehicle control. Blood samples were obtained at baseline, following shock, and prior to sacrifice (1 hour, 4 hours, and 20 hours; n=3-4/time point/group). Serum samples were screened for possible biomarkers using a multiplex electrochemiluminescence detection assay, and results were confirmed using ELISA. Additionally, lung tissue lysate was examined for chemokine and myeloperoxidase (MPO) levels as markers for neutrophil infiltration and ALI. Additionally, lung CINC-1 (a chemokine belonging to the IL-8 family that promotes neutrophil chemotaxis) mRNA levels were measured by real-time PCR.
Animals were hemorrhaged 40% of their total blood volume to induce sub-lethal HS, and were sacrificed at 1, 4, and 20 hours following hemorrhage and treatment. This degree of blood loss was selected to allow 100% of animals in all groups to survive until the designated time of sacrifice. Selected laboratory values were measured, and were indicative of moderate HS (mean lactate 0.6 mmol/L at baseline, 4.3 mmol/L after hemorrhage; mean baseline hemoglobin 12.0 g/dL at baseline, 9.6 g/dL after hemorrhage). […]

CINC-1 [6] = assay: Serum CINC-1 ELISA, sub-lethal hemorrhagic shock; type: in vivo; settings: rat, 40% blood volume hemorrhage, VPA 300 mg/kg IV vs vehicle, 4 hours, p<0.05
Protocol: as §2
(§3) Animals were hemorrhaged 40% of their total blood volume to induce sub-lethal HS, and were sacrificed at 1, 4, and 20 hours following hemorrhage and treatment. This degree of blood loss was selected to allow 100% of animals in all groups to survive until the designated time of sacrifice. Selected laboratory values were measured, and were indicative of moderate HS (mean lactate 0.6 mmol/L at baseline, 4.3 mmol/L after hemorrhage; mean baseline hemoglobin 12.0 g/dL at baseline, 9.6 g/dL after hemorrhage).
Conventional ELISA was used to confirm the data obtained using the multiplex electrochemiluminescence assay.

CINC-1 [7] = assay: Lung tissue CINC-1 ELISA, sub-lethal hemorrhagic shock; type: in vivo; settings: rat, 40% blood volume hemorrhage, VPA 300 mg/kg IV vs vehicle, 20 hour time point, p=0.17
Protocol: as §2, §3
ELISA was used to measure CINC-1 levels in lung whole tissue extract (n=3-4/time point/group).

myeloperoxidase (MPO) = assay: Lung tissue myeloperoxidase (MPO) level, sub-lethal hemorrhagic shock; type: in vivo; settings: rat, 40% blood volume hemorrhage, VPA 300 mg/kg IV vs vehicle, 20 hour time point, p<0.05
Protocol: as §2
(§4) Animals were hemorrhaged 40% of their total blood volume to induce sub-lethal HS, and were sacrificed at 1, 4, and 20 hours following hemorrhage and treatment. […] Selected laboratory values were measured, and were indicative of moderate HS (mean lactate 0.6 mmol/L at baseline, 4.3 mmol/L after hemorrhage; mean baseline hemoglobin 12.0 g/dL at baseline, 9.6 g/dL after hemorrhage).
Myeloperoxidase (MPO) levels were measured in lung whole tissue extract as a marker for neutrophil infiltration (n=3-4/time point/group).

CINC-1 mRNA = assay: Lung CINC-1 mRNA by real-time PCR, sub-lethal hemorrhagic shock; type: in vivo; settings: rat, 40% blood volume hemorrhage, VPA 300 mg/kg IV vs vehicle, 1, 4 and 20 hours
Protocol: as §2, §4
To rule out possibility that an increase of CINC-1 protein in lung results from induction of the gene expression, lung tissue was assessed for CINC-1 mRNA levels (n=3-4/time point/group). […]

acute lung injury = assay: Acute lung injury (ALI) following hemorrhagic shock; type: in vivo; settings: rat, 40% blood volume hemorrhage, VPA 300 mg/kg
hemorrhagic shock [8] = settings: rats, literature (Shults et al. 2008; Li et al. 2008; WO 2007117272); cited from earlier work

For `CCCC(CCC)C(=O)O` [VPA, Valproic acid], the “serum level of 22.7 kDa protein (SELDI-TOF MS) versus HS” value (22.7 kDa serum protein) was “down-regulated”, the “ratio of VPA to HS, claudin-3 peptide isobaric tag signal in serum” value (claudin-3 [1]) was 0.425 and the “serum claudin-3 by Western blot” value (claudin-3 [2]) was “no claudin-3 was detected”. The “intestinal claudin-3 protein level by Western blot” value (claudin-3 [3]) was “significantly attenuated the HS-induced reduction of claudin-3”, the “intestinal claudin-3 mRNA expression” value (claudin-3 mRNA) was “did not significantly change” and the “survival after hemorrhagic shock” value (hemorrhagic shock [4]) was “significantly improved survival; also recorded: survived”. The “HS-induced rise of serum CINC-1 (multiplex electrochemiluminescence assay)” value (CINC-1 [5]) was “appeared to be attenuated”, the “HS-induced increase of circulating CINC-1 (ELISA)” value (CINC-1 [6]) was “significantly attenuated this effect” and the “effects on lung CINC-1 levels” value (CINC-1 [7]) was “not statistically significant”. For the same molecule, the “HS-induced increase of lung MPO levels” value (myeloperoxidase (MPO)) was “significantly attenuated this effect”, the “lung CINC-1 mRNA levels” value (CINC-1 mRNA) was “no significant changes between groups” and the “development of ALI after hemorrhage” value (acute lung injury) was “inhibited and reduced”. For the same molecule, the “survival after lethal HS” value (hemorrhagic shock [8]) was “improves survival”.
